# Data taken from patent US10160705B2, “Class of HDAC inhibitors expands the renal progenitor cells population and improves the rate of recovery from acute kidney injury” (University of Pittsburgh—Of the Commonwealth System of …, priority 2011, dated 2018).
# Read-outs that look alike come from different tables or passages of the source.
# Experiments:
# renal progenitor cells = experiment: In situ hybridization for lhx1a expression in 10-somite embryos (renal progenitor cell expansion); assay type: in vivo; details: for Lhx1a expansion caused by analog treatment, 200 nM: 200 nM from 2 hpf; for Lhx1a expansion caused by analog treatment, 400 nM: 400 nM from 2 hpf; for responders at 1.5 µM / responders at 0.4 µM / responders at 0.8 µM / responders at 3 µM / responders at 0.2 µM / EC50: Danio rerio; for EC50: first pass EC50 from percent expansion (Excel trendline), average where several experiments; on Lhx1a expansion caused by analog treatment, 200 nM: key: effective (+); partially effective (+/−); ineffective (−); Analogs that killed all embryos at a given concentration before reaching 10 somites are listed as XX; on Lhx1a expansion caused by analog treatment, 3 μM: key: effective (+); partially effective (+/−); ineffective (−); Analogs that killed all embryos at a given concentration before reaching 10 somites are listed as XX; on Lhx1a expansion caused by analog treatment, 400 nM: key: effective (+); partially effective (+/−); ineffective (−); Analogs that killed all embryos at a given concentration before reaching 10 somites are listed as XX; on Lhx1a expansion caused by analog treatment, 800 nM: key: effective (+); partially effective (+/−); ineffective (−); Analogs that killed all embryos at a given concentration before reaching 10 somites are listed as XX
# Procedure: PTBA was synthesized as described below. Hydroxyurea and aphidicolin were obtained from Sigma-Aldrich.
# In situ hybridization and immunocytochemistry: In situ hybridization was performed as previously described with some modifications.142 Hybridization temperature was 65° C. Embryos were blocked in 2% blocking reagent (Roche) with 5% sheep serum in MAB (100 mM maleic acid and 150 mM NaCl [pH 7.5]). Whole-mount immunocytochemistry with 1:25 mouse anti-α6F antibody (Developmental Studies Hybridoma Bank) and 1:100 Cy3 secondary antibody (Jackson ImmunoResearch) was performed as described previously.108 Embryos were embedded in JB-4 for sectioning per the manufacturer's instructions (Polysciences), sectioned at 5 μm, and mounted with Cytoseal 60 (Richard-Allan Scientific).
# The remaining PTBA analogs were synthesized.
# In situ hybridization for lhx1a was performed as described above. […] Compounds were classified as effective, partially-effective or ineffective based on comparison to the effects of PTBA at a given concentration.
# Testing of the compounds is on-going, but for those tested, Table 6 provides first pass EC50s based upon colormetric in situ hybridizations for the Lhx1a mRNA expression levels. After the procedure is run, in situ hybridization is done for the lhx1 mRNA expression and the number of embryos that show an expanded kidney field is manually counted to establish the percent of embryos showing expansion. Then the EC50 is determined by plotting the percent expansion in Excel, graphing the results and using the trendline function to determine the 50 percent point.
# zebrafish embryos = experiment: Phenotypic screen for edema and survival in zebrafish larvae at 72 hpf; details: for Dead / Edemic 1 (E1) / Edemic 2 (E2) / Edemic 3 (E3) / Wild-type (WT): number of larvae (of 36), 3 μM from 2 hpf, scored at 72 hpf; for effect on zebrafish embryos in the phenotypic screen: 3 μM
# Procedure: The screen was performed in zebrafish embryos using the National Cancer Institute's Developmental Therapeutics Program (NCI/DTP) Diversity Set I. This library contains 1990 compounds selected by pharmacophore modeling to represent the more than 140,000 small molecules maintained in the NCI/DTP Open Repository. Compounds from the NCI/DTP Diversity Set I were diluted to 10 μM in E3 embryo medium (5 mM NaCl, 0.33 mM CaCl2, 0.33 mM MgSO4, and 0.17 mM KCl) in a final DMSO concentration of 0.5% and arrayed in 96-well plates. Beginning at approximately 2 hpf, embryos were transferred to each well in groups of five using a glass pipette. The plates were incubated at 28.5° C. for 70 hours. Individual wells were then scored for a dominant phenotype, representative of at least four of the five embryos. The primary objective was to identify compounds that caused edema in treated embryos at 72 hpf. Small molecules generating edema were retested once for verification, before obtaining additional compound from the NCI/DTP Open Repository.
# PTBA was synthesized as described below. Hydroxyurea and aphidicolin were obtained from Sigma-Aldrich. Groups of 20 to 30 chorionated 2 hpf embryos were arrayed in individual wells of 12-well plates. E3 medium was removed with a glass pipette and replaced with 1.5 ml treatment solutions containing 0.5% DMSO in E3 with or without compound at the reported concentrations. Treatments for all studies were initiated at 2 hpf, except for the temporal studies (FIG. 6) and the HUA studies (FIG. 11). HUA studies were performed as described previously (Zhang, L., et al. Cell cycle progression is required for zebrafish somite morphogenesis but not segmentation clock function. Development 135, 2065-2070, (2008)), with the following modifications. HUA in 0.5% DMSO was added at early gastrulation (5 hpf) and PTBA was subsequently added at late gastrulation (8 hpf) to allow for penetration of the proliferation inhibitors. All embryos were incubated at 28.5° C. until the required developmental stage.
# Following 70 hours of treatment (as described above), edemic phenotypes in 72 hpf larvae were scored using a phenotype-based classification system. Wild type: no visible edema or developmental delay. […] Significant effects (p<0.05) on survival were determined by two-tailed Fisher's exact test in comparison with the 0 μM PTBA treatment group.
# PTBA and methyl-4-(phenylthio)butanoate were synthesized as described above. 4-(Naphthalen-2-ylthio)butanoic acid (NSC2733) and 3-(phenylthio)benzoic acid (NSC113994), were obtained from the NCI/DTP Open Repository. APHA compound 8, Apicidin, butanoic acid, PBA, 4-phenoxybutanoic acid, 5-phenylpentanoic acid, Scriptaid, TSA, and valproic acid were obtained from Sigma-Aldrich. MS-275 and SAHA were obtained from Cayman Chemical Co. 4-(phenylsulfonyl)butanoic acid was obtained from Matrix Scientific. Tubacin was a gift of Dr. Ralph Mazitschek of the Broad Institute (Cambridge, Mass.). The remaining PTBA analogs were synthesized. Three independent groups of 12 chorionated 2 hpf embryos were arrayed in individual wells of 24-well plates. E3 medium was removed with a glass pipette and replaced with 800 μl treatment solutions containing 0.5% DMSO in E3 with or without compound at the reported concentrations.
# Phenotypic screening of PTBA analogs was performed identically to the concentration-response experiments detailed above. Embryos were treated with each PTBA analog from 2 to 72 hpf as described above.
# [1] = 800 nM from 2 hpf, 10-somite embryos
# [2] = 1.5 μM from 2 hpf, 10-somite embryos
# [3] = 3 μM from 2 hpf, 10-somite embryos
# [4] = 1.5 μM from 2 hpf, 10-somite embryos, read-out: lhx1a expansion, percent of treated embryos
# [5] = percent of embryos with expanded kidney field, 400 nM, read-out: Expansion of Cells (including repeats* and recounts**) 400 nM
# [6] = percent of embryos with expanded kidney field, 800 nM, read-out: Expansion of Cells (including repeats* and recounts**) 800 nM
# [7] = percent of embryos with expanded kidney field, 1.5 μM, read-out: Expansion of Cells (including repeats* and recounts**) 1.5 μM
# [8] = percent of embryos with expanded kidney field, 3 μM, read-out: Expansion of Cells (including repeats* and recounts**) 3 μM
# [9] = percent of embryos with expanded kidney field, 3 μM
# [10] = 3 μM from 2 hpf, 10-somite embryos, read-out: lhx1a expansion, percent of treated embryos
# [11] = percent of embryos with expanded kidney field, 200 nM, read-out: Expansion of Cells (including repeats* and recounts**) 200 nM
SMILES,"Lhx1a expansion caused by analog treatment, 800 nM (renal progenitor cells; [1])","Lhx1a expansion caused by analog treatment, 1.5 μM (renal progenitor cells; [2])","Lhx1a expansion caused by analog treatment, 3 μM (renal progenitor cells; [3])",responders at 1.5 µM (renal progenitor cells; [4]) [%],responders at 1.5 µM (renal progenitor cells; [7]) [%],responders at 3 µM (renal progenitor cells; [8]) [%],Dead (zebrafish embryos),Edemic 1 (E1) (zebrafish embryos),Edemic 2 (E2) (zebrafish embryos),Edemic 3 (E3) (zebrafish embryos),Wild-type (WT) (zebrafish embryos),also measured
"Cc1ccc(SCCCC(=O)NO)cc1 [UPHD-00028, N-hydroxy-4-[(4-methyl-phenyl)sulfanyl]butanamide]",+,+,+,97,97,100,22,0,0,14,0,"Lhx1a expansion caused by analog treatment, 200 nM (renal progenitor cells; 10-somite embryos): −; Lhx1a expansion caused by analog treatment, 400 nM (renal progenitor cells; 10-somite embryos): −; responders at 0.4 µM (renal progenitor cells; [5]): 9%; responders at 0.8 µM (renal progenitor cells; [6]): 61%; Expansion of Cells (including repeats* and recounts**) 3 μM (renal progenitor cells; [9]): 100%"
"Nc1ccccc1NC(=O)c1ccc(CNC(=O)OCc2cccnc2)cc1 [MS-275, reference compound]",,,−,,,,0,0,0,0,36,effect on zebrafish embryos in the phenotypic screen (zebrafish embryos): no effect
"O=C(CCCSc1ccc(Cl)cc1)NO [UPHD-00027, 4-[(4-chloro-phenyl)sulfanyl]-N-hydroxybutanamide]",+/−,+,+,97,97,94,14,0,0,22,0,responders at 0.8 µM (renal progenitor cells; [6]): 17%
"O=C(CCCCCCC(=O)Nc1ccccc1)NO [SAHA, reference compound]",,,−,,,,0,0,0,0,36,effect on zebrafish embryos in the phenotypic screen (zebrafish embryos): no effect
"O=C(O)CCCOc1ccccc1 [4-phenoxybutanoic acid, reference compound]",,,−,,,,0,0,0,0,36,responders at 3 µM (renal progenitor cells; [10]): 13%
"O=C(CCCSc1ccccc1)NO [UPHD-00023, N-hydroxy- 4(phenyl- sulfanyl)butanamide]",+/−,+,+,92,92,100,0,3,20,13,0,responders at 0.2 µM (renal progenitor cells; [11]): 0%; responders at 0.4 µM (renal progenitor cells; [5]): 6%; EC50 (renal progenitor cells): 1300 nM
"O=C(CCCCCCC(=O)Nc1ccc([C@H]2O[C@@H](CSc3nc(-c4ccccc4)c(-c4ccccc4)o3)C[C@@H](c3ccc(CO)cc3)O2)cc1)NO [tubacin, reference compound]",,,−,,,,0,0,0,0,36,effect on zebrafish embryos in the phenotypic screen (zebrafish embryos): appeared wild-type
"Cn1cc(C(=O)Cc2ccccc2)cc1/C=C/C(=O)NO [APHA compound 8, reference compound]",,,−,,,,0,0,0,0,36,
"COC(=O)CCCSc1ccc(Cl)cc1 [UPHD-00021, methyl 4-[(4-chloro-phenyl)sulfanyl]butanoate]",,+/−,+,72,72,97,1,10,6,19,0,
"O=C(O)CCCNc1ccccc1 [VNK-I-300, 4-(phenylamino)butanoic acid]",,,−,,,,0,1,0,0,35,
"CCCOC(=O)CCCSc1ccccc1 [UPHD-00024, propyl 4-(phenylsulfanyl)butanoate]",+/−,+,+,89,89,94,6,7,8,15,0,responders at 0.2 µM (renal progenitor cells; [11]): 0%; responders at 0.4 µM (renal progenitor cells; [5]): 10%; EC50 (renal progenitor cells): 1270 nM
"COC(=O)CCCSc1ccc(F)cc1 [UPHD-00030, methyl 4-[(4-fluoro-phenyl)sulfanyl]butanoate]",+,+,,100,100,,36,0,0,0,0,"Lhx1a expansion caused by analog treatment, 200 nM (renal progenitor cells; 10-somite embryos): +/−; Lhx1a expansion caused by analog treatment, 400 nM (renal progenitor cells; 10-somite embryos): +/−; lhx1a expansion, percent of treated embryos (renal progenitor cells; [1]): 64%; lethality before the 10-somite stage (renal progenitor cells; 3 μM): killed all treated embryos; responders at 0.2 µM (renal progenitor cells; read-out: lhx1a expansion, percent of treated embryos, 200 nM from 2 hpf, 10-somite embryos): 22%; responders at 0.4 µM (renal progenitor cells; read-out: lhx1a expansion, percent of treated embryos, 400 nM from 2 hpf, 10-somite embryos): 26%; responders at 0.8 µM (renal progenitor cells; read-out: lhx1a expansion, percent of treated embryos, 800 nM from 2 hpf, 10-somite embryos): 64%; EC50 (renal progenitor cells): 485 nM; Expansion of Cells (including repeats* and recounts**) 3 μM (renal progenitor cells; [9]): All dead"
"CCCC(CCC)C(=O)O [valproic acid, reference compound]",,,+/−,,,,0,11,0,0,25,responders at 3 µM (renal progenitor cells; [10]): 20%
